Reference: ChEMBL document CHEMBL1201862, “PubChem BioAssay data set” (2004)
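All cell lines were grown in 96-well plates and treated with compound for 48 hours. GI50 = concentration required for 50% inhibition of growth.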 The source made the active and inactive calls. No stated cut-off is given here; in the data, active = GI50 up to about 1.1 µM and inactive = higher.

Key:
Experiment in all cases: DTP human tumour cell line panel, 48 h
A498 = system: A498
ACHN = system: ACHN
CAKI-1 = system: CAKI-1
CCRF-CEM = system: CCRF-CEM
COLO 205 = system: COLO 205
HCT-15 = system: HCT-15
K562 = system: K562
KM12 = system: KM12
MDA-MB-231 = system: MDA-MB-231
MOLT-4 = system: MOLT-4
NCI-H522 = system: NCI-H522
OVCAR-4 = system: OVCAR-4
OVCAR-8 = system: OVCAR-8
SF-268 = system: SF-268
SF-295 = system: SF-295
SK-MEL-28 = system: SK-MEL-28
SNB-19 = system: SNB-19
T47D = system: T47D
UACC-257 = system: UACC-257
UACC-62 = system: UACC-62

Structure (SMILES) | GI50 (A498) | GI50 (ACHN) | GI50 (CAKI-1) | GI50 (CCRF-CEM) | GI50 (COLO 205) | GI50 (HCT-15) [µM] | GI50 (K562) | GI50 (KM12) | GI50 (MDA-MB-231) | GI50 (MOLT-4) | GI50 (NCI-H522) | GI50 (OVCAR-4) | GI50 (OVCAR-8) | GI50 (SF-268) | GI50 (SF-295) | GI50 (SK-MEL-28) | GI50 (SNB-19) | GI50 (T47D) | GI50 (UACC-257) | GI50 (UACC-62)
C=C1CC2(CCOc3ccc(Cl)cc32)OC1=O (stereo not given) | 11.9 µM (inactive) | 4.86 µM (inactive) | 2.33 µM (inactive) | 1.45 µM (inactive) | 1.64 µM (inactive) | 0.935 | 2.55 µM (inactive) | 13.7 µM (inactive) | 6.44 µM (inactive) | 0.805 µM (active) | 0.885 µM (active) | 1.91 µM (inactive) | 4.59 µM (inactive) | 6.22 µM (inactive) | 7.24 µM (inactive) | 8.38 µM (inactive) | 13.1 µM (inactive) | 4.93 µM (inactive) | 5.74 µM (inactive) | 13.1 µM (inactive)
Oc1ccc(SCc2ccc(NCc3ccccc3)cc2)cc1 | 20.1 µM (inactive) | 24 µM (inactive) | 19.6 µM (inactive) | 1.24 µM (inactive) | 35.4 µM (inactive) | 8.97 | 31.5 µM (inactive) | 29.2 µM (inactive) | 39.9 µM (inactive) | 11.4 µM (inactive) | 20 µM (inactive) | 18.1 µM (inactive) | 37.8 µM (inactive) | 39.4 µM (inactive) | 22.3 µM (inactive) | 63.8 µM (inactive) | 23.9 µM (inactive) | 14.7 µM (inactive) | 29.9 µM (inactive) | 23.4 µM (inactive)
CCCCCCCCCCCCCCNC(=O)CCC(NC(=O)c1ccc(N(C)Cc2cnc3nc(N)nc(N)c3n2)cc1)C(=O)NCCCCCCCCCCCCCC (stereo not given) | 14.5 µM (inactive) | 6.38 µM (inactive) | 10.4 µM (inactive) | 0.773 µM (active) | 11.8 µM (inactive) | 2.52 | < 0.0185 µM (active) | 2.45 µM (inactive) | 8.73 µM (inactive) | 0.982 µM (active) | 5.04 µM (inactive) | 12.5 µM (inactive) | 4.36 µM (inactive) | 2.49 µM (inactive) | 7.19 µM (inactive) | 13.8 µM (inactive) | 17.1 µM (inactive) | 8.51 µM (inactive) | 10.7 µM (inactive) | 2.63 µM (inactive)
